Data taken from article PMC12544700, “Identification of a Small Secretoneurin Derivative That Inhibits CaMKIIδ Activity” (Journal of Cellular and Molecular Medicine, 2025).
Peptide text beside a SMILES is read from it. * marks the point of attachment. Biotin = O=C1N[C@H]2[C@H](CS[C@H]2CCCCC(=O)*)N1; Ahx = NCCCCCC(=O)O

System: adult rat cardiomyocytes
Test: Caffeine-elicited Ca2+ transients (Ca2+ extrusion)
Format: cell-based
Settings: 10 mM caffeine; whole‐cell photometry; Figure S3, n = 10–18, 4–6 rats
Experimental: Male Wistar rats (Janvier, France) weighing ~300 g were sedated in an anaesthesia chamber by inhalation of 5% isoflurane and 95% O2. The heart was excised under deep surgical anaesthesia, cannulated, and then retrogradely perfused through the aorta on a modified Langendorff setup with cell isolation solution containing (in mM, pH adjusted to 7.4, 37°C): NaCl 130, Hepes 25, D‐glucose 22, KCl 5.4, MgCl2 0.5, NaH2PO4 0.4, and a flow rate of 4 mL/min. After the heart was cleaned of blood, collagenase type II (2 mg/mL, Worthington Biochemical Corp, Lakewood, NJ, USA) was added to the perfusate, and the hearts digested for ~10 min. Following digestion, hearts were cut down, and the left ventricle dissected into pieces, which were transferred into 10 mL cell isolation solution with 250 μL BSA (40 mg/mL) and ~0.2 mg Deoxyribonuclease I (Worthington Biochemical Corporation, Lakewood, NJ, USA). […]
To estimate SR Ca^2+ content, Ca^2+ release was triggered by rapid exposure to 10 mM caffeine (Sigma) and recorded by whole‐cell photometry (Photon Technology International, Monmouth Junction, NJ, USA) with a 40× oil objective. Cells were first stimulated at 1 Hz in Hepes‐Tyrode (HT, see the paragraph above) solution containing CaCl2 until at least three stable Ca^2+ transients were recorded. […]

- Rate of Ca2+ extrusion (Na+‐Ca2+ exchanger and plasma membrane Ca2+ ATPase activity): no change
SMILES: CC(C)C[C@H](NC(=O)[C@H](CCC(=O)O)NC(=O)[C@H](CCC(N)=O)NC(=O)[C@H](Cc1ccccc1)NC(=O)[C@H](Cc1ccccc1)NC(=O)[C@H](CO)NC(=O)[C@H](CCC(=O)O)NC(=O)[C@H](Cc1ccccc1)NC(=O)[C@@H](NC(=O)[C@H](C)NC(=O)[C@H](CC(C)C)NC(=O)[C@H](CO)NC(=O)[C@H](CCC(N)=O)NC(=O)[C@@H]1CCCN1C(=O)[C@@H](NC(=O)[C@H](Cc1ccc(O)cc1)NC(=O)[C@H](CCC(N)=O)NC(=O)[C@H](CCC(=O)O)NC(=O)CCCCCNC(=O)CCCC[C@@H]1SC[C@@H]2NC(=O)N[C@@H]21)[C@@H](C)O)[C@@H](C)O)C(=O)NCC(=O)N[C@@H](CCCCN)C(=O)O [SN‐db‐short] ({Biotin-Ahx}-EQYTPQSLATFESFFQELGK-OH; N-terminus and C-terminus assumed)
